The values below come from ChEMBL document CHEMBL5055666, “Tyrosine-Derived Novel Benzoxazine Active in a Rat Syngenic Mammary Tumor Model of Breast Cancer” (J Med Chem, 2021).

In general, IC50 refers to the concentration needed to halve the response being measured.

Data set [1] concerns MCF7. The data set is described as follows: Antiproliferative activity against human MCF7 cells assessed as inhibition of cell growth incubated for 24 hrs by MTT assay. It is filed as functional, cell-based. To be noted: MCF7, 24 h.
The subject of data set [2] is MDA-MB-231. Put plainly: Antiproliferative activity against human MDA-MB-231 cells assessed as inhibition of cell growth incubated for 24 hrs by MTT assay. It is filed as functional, cell-based. To be noted: MDA-MB-231, 24 h.
The subject of data set [3] is Rattus norvegicus. Put plainly: Toxicity in Sprague-Dawley rat inoculated with rat LA7 cells assessed as increase in uterine tissue at 10 mg/kg administered daily for 21 days. It is filed as organism-based. To be noted: in vivo, 504 h, time 21 day.

Take `COc1ccc(C[C@H]2COc3ccccc3N2Cc2ccc(OCCOCCN3CCCC3)cc2)cc1`: the half-maximal inhibitory concentration (IC50) in data set [1] is 21.3 µM; in data set [2], over 50 µM. As for `CC(=O)O[C@H]1C(=O)[C@@]2(C)[C@H]([C@H](OC(=O)c3ccccc3)[C@]3(O)C[C@H](OC(=O)[C@H](O)[C@@H](NC(=O)c4ccccc4)c4ccccc4)C(C)=C1C3(C)C)[C@]1(OC(C)=O)CO[C@@H]1C[C@@H]2O` [PACLITAXEL], in data set [2], the IC50 is 3.77 µM. Take `COc1ccc(C[C@H]2CSc3ccccc3N2Cc2ccc(OCCN3CCCC3)cc2)cc1`: the IC50 in data set [1] was found to be 30.8 µM; in data set [2], 10.9 µM.

As for `Oc1ccc(C[C@H]2COc3ccccc3N2Cc2ccccc2)cc1`, the IC50 in data set [1] was 41.6 µM; in data set [2] it was 32.5 µM. Take `COc1ccc(C[C@H]2COc3ccc(OC)cc3N2Cc2ccc(OCCN3CCCC3)cc2)cc1`: the concentration for half-maximal inhibition (IC50) in data set [1] was 3.34 µM; in data set [2] it was 3.59 µM. In the same order, the values of `COc1ccc(C[C@H]2CSc3ccccc3N2Cc2ccc(OCCN(C(C)C)C(C)C)cc2)cc1` are over 50 µM and over 50 µM. As for `COc1ccc(C[C@H]2COc3ccccc3N2Cc2ccc(OCCN3CCCCCC3)cc2)cc1`, the half-maximal inhibitory concentration (IC50) in data set [1] is 18.1 µM; in data set [2], 10.1 µM. Consider `CCN1c2ccccc2OC[C@@H]1Cc1ccc(O)cc1`, for which the IC50 in data set [1] worked out at 30.4 µM; in data set [2] it was 43.6 µM. In the same order, the values of `COc1ccc(C[C@H]2COc3cc(F)c(F)cc3N2Cc2ccc(OCCN3CCCC3)cc2)cc1` are 3.35 µM and 3.22 µM. On the same counts, the results for `COc1ccc(C[C@H]2COc3ccc(OC)cc3N2Cc2ccc(OCCN3CCCCC3)cc2)cc1` are 2.6 µM and 2.64 µM. With `COc1ccc(C[C@H]2CSc3ccccc3N2Cc2ccc(OCCN3CCCCC3)cc2)cc1`, the IC50 in data set [1] is 17.4 µM; in data set [2], 12.2 µM. With `COc1ccc(C[C@H]2COc3ccc(C(F)(F)F)cc3N2Cc2ccc(OCCN3CCCC3)cc2)cc1`, the IC50 came out at 6.86 µM in data set [1] and 6.89 µM in data set [2]. Take `CN1c2ccccc2OC[C@@H]1Cc1ccc(OCCN2CCCCC2)cc1`: the half-inhibitory concentration (IC50) in data set [1] and in data set [2] was over 50 µM in each case. As to `COc1ccc(C[C@H]2COc3ccccc3N2Cc2ccc(OCCN3CCOCC3)cc2)cc1`, the IC50 is 83.6 µM in data set [1] and 31.3 µM in data set [2]. In the case of `CC/C(=C(\c1ccccc1)c1ccc(OCCN(C)C)cc1)c1ccccc1` [TAMOXIFEN], the half-inhibitory concentration (IC50) in data set [1] turned out to be 5.4 µM. Besides, the Activity result in data set [3] is “Toxic”.

Turning to `COc1ccc(C[C@H]2COc3ccccc3N2Cc2ccc(O)cc2)cc1`, the results for the half-maximal inhibitory concentration (IC50) in data set [1] and in data set [2] were 24.4 µM and 40.2 µM, respectively. In the case of `COc1ccc(C[C@H]2COc3ccccc3N2Cc2ccc(OCCOCCN3CCCCC3)cc2)cc1`, the IC50 in data set [1] was 7.81 µM; in data set [2], over 50 µM. Consider `c1ccc(CN2c3ccccc3OC[C@@H]2Cc2ccc(OCCN3CCCCC3)cc2)cc1`, for which the IC50 in data set [1] is 22 µM; in data set [2] it was over 50 µM. `COc1ccc(C[C@H]2COc3ccc(F)cc3N2Cc2ccc(OCCN3CCCC3)cc2)cc1`: the values for the IC50 in data set [1] and in data set [2] were 3.34 µM and 3.23 µM, respectively. For the molecule `CCN(CC)CCOc1ccc(CN2c3ccccc3OC[C@@H]2Cc2ccc(OC)cc2)cc1`, the IC50 was 6.95 µM in data set [1] and 0.97 µM in data set [2].

As to `COc1ccc(C[C@H]2COc3ccccc3N2Cc2ccc(OCCN3CCCCC3)cc2)cc1`, the figures for the IC50 in data set [1] and in data set [2] were 0.68 µM and 11 µM, respectively.

Regarding `COc1ccc(C[C@@H]2COc3ccccc3N2Cc2ccc(OCCN3CCCC3)cc2)cc1`, the IC50 is 7.03 µM in data set [1] and 6.52 µM in data set [2]. Consider `COc1ccc(C[C@H]2COc3ccccc3N2C)cc1`, for which the IC50 in data set [1] and in data set [2] was over 50 µM in each case. Regarding `COc1ccc(C[C@H]2COc3cc(F)c(F)cc3N2Cc2ccc(OCCN3CCCCC3)cc2)cc1`, the IC50 came to 5.05 µM in data set [1] and 4.86 µM in data set [2]. In the case of `COc1ccc(C[C@H]2COc3ccccc3N2Cc2ccccc2)cc1`, the half-maximal inhibitory concentration (IC50) in data set [1] and in data set [2] was over 50 µM throughout.

Consider `Oc1ccc(C[C@H]2COc3ccccc3N2)cc1`, for which the half-maximal inhibitory concentration (IC50) in data set [1] was over 50 µM; in data set [2], 47.4 µM. `COc1ccc(C[C@@H]2COc3ccccc3N2Cc2ccc(OCCN3CCCCC3)cc2)cc1`: the IC50 in data set [1] was 6.3 µM; in data set [2] it was 4.87 µM.

On to `COc1ccc(C[C@H]2COc3ccc(F)cc3N2Cc2ccc(OCCN3CCCCC3)cc2)cc1`, for which the figures for the IC50 in data set [1] and in data set [2] were 3.61 µM and 2.92 µM, respectively. On to `COc1ccc(C[C@H]2COc3ccccc3N2Cc2ccc(OCCOCCN(C(C)C)C(C)C)cc2)cc1`, for which the half-maximal inhibitory concentration (IC50) in data set [1] was 5.5 µM; in data set [2], over 50 µM. Consider `CCN1c2ccccc2OC[C@@H]1Cc1ccc(OCCN2CCCC2)cc1`, for which the IC50 is 45.8 µM in data set [1] and over 50 µM in data set [2]. For the molecule `CC(C)N(CCOc1ccc(C[C@H]2COc3ccccc3N2Cc2ccccc2)cc1)C(C)C`, the concentration for half-maximal inhibition (IC50) in data set [1] is 40.4 µM; in data set [2] it was over 50 µM. With `CCN(CC)CCOCCOc1ccc(CN2c3ccccc3OC[C@@H]2Cc2ccc(OC)cc2)cc1`, the IC50 was determined as 39.1 µM in data set [1] and 45 µM in data set [2].

As to `CCN(CC)CCOc1ccc(CN2c3ccccc3SC[C@@H]2Cc2ccc(OC)cc2)cc1`, the 50% inhibitory concentration (IC50) in data set [1] came out at 31.7 µM; in data set [2], 26.7 µM. Regarding `COc1ccc(C[C@H]2COc3ccccc3N2)cc1`, the IC50 in data set [1] is over 50 µM; in data set [2], 36.4 µM. For `Oc1ccc(C[C@H]2COc3ccccc3N2Cc2ccc(O)cc2)cc1`, the concentration for half-maximal inhibition (IC50) is 24.4 µM in data set [1] and 40.2 µM in data set [2]. Turning to `CN(C)CCOc1ccc(C[C@H]2COc3ccccc3N2C)cc1`, the 50% inhibitory concentration (IC50) in data set [1] and in data set [2] was over 50 µM each time. As for `COc1ccc(C[C@H]2COc3ccccc3N2Cc2ccc(OCCN(C(C)C)C(C)C)cc2)cc1`, the figures for the IC50 in data set [1] and in data set [2] were 77.6 µM and 0.83 µM, respectively. In the case of `CN1c2ccccc2OC[C@@H]1Cc1ccc(OCCN2CCCC2)cc1`, the IC50 in data set [1] and in data set [2] was over 50 µM in each case. In the case of `COc1ccc(C[C@H]2COc3ccc(C(F)(F)F)cc3N2Cc2ccc(OCCN3CCCCC3)cc2)cc1`, the IC50 in data set [1] turned out to be 6.1 µM; in data set [2], 6.36 µM. In the case of `COc1ccc(C[C@H]2COc3ccccc3N2C(=O)c2ccc(N)cc2)cc1`, the IC50 in data set [1] and in data set [2] was over 50 µM each time.

On to `COc1ccc(C[C@H]2COc3ccccc3N2Cc2ccc(OS(=O)(=O)c3ccc(C)cc3)cc2)cc1`, for which the IC50 in data set [1] and in data set [2] was over 50 µM throughout. In the case of `c1ccc(CN2c3ccccc3OC[C@@H]2Cc2ccc(OCCN3CCCC3)cc2)cc1`, the figures for the IC50 in data set [1] and in data set [2] were 21.1 µM and over 50 µM, respectively. On the same counts, the results for `COc1ccc(C[C@H]2CSc3ccccc3N2Cc2ccc(OCCN(C)C)cc2)cc1` are 28.8 µM and 25.5 µM.

For the molecule `COc1ccc(C[C@H]2COc3ccccc3N2Cc2ccc(OCCO)cc2)cc1`, the IC50 in data set [1] is 43.7 µM; in data set [2] it was over 50 µM. Turning to `COc1ccc(C[C@H]2COc3ccccc3N2Cc2ccc(OCCN(C)C)cc2)cc1`, the results for the 50% inhibitory concentration (IC50) in data set [1] and in data set [2] were 6.75 µM and 11.1 µM, respectively. In the case of `CN(C)CCOc1ccc(C[C@H]2COc3ccccc3N2Cc2ccccc2)cc1`, the concentration for half-maximal inhibition (IC50) in data set [1] is 20.5 µM; in data set [2], over 50 µM.
